Experimental data reported in patent publication US20230391772A1, “METHODS AND COMPOSITIONS FOR TARGETED PROTEIN DEGRADATION” (Ranok Therapeutics (Hangzhou) Co. Ltd., priority 2020, published 2023).

What was measured:
[1] = target: T1, KRAS(G12C) (Homo sapiens, UniProt P01116, G12C); experiment: KRAS(G12C) Western blot protein degradation assay in LU65A cells; assay type: cell-based; design: LU65A human lung cancer cell line, which expresses KRAS(G12C); host or cells: LU65A; conditions: 6 hr
Experimental: The following cancer cell lines were employed: BT-474 human breast carcinoma (ATCC, #HTB-20); MIA PaCa-2 human pancreatic carcinoma [2 copies KRAS(G12C)](ATCC, #CRL-1420); NCI-H23 human non-small cell lung cancer [1 copy KRAS(G12C)](ATCC, #CRL-5800); NCI-H358 human non-small cell lung cancer [1 copy KRAS(G12C)](ATCC, #CRL-5807); LU65A human lung carcinoma (Pharmaron, Beijing, China). Cell lines were cultured essentially according to ATCC and Pharmaron recommendations.
KRAS(G12C) Western Blot Protein Degradation Assay
The MIA PaCa-2 human pancreatic carcinoma cell line and LU65A human lung cancer cell line, which expresses KRAS(G12C), were seeded in 6- or 12-well tissue culture plates, and after 1 hr, test compounds were added at various concentrations and incubated at 37° C./5% CO2 for 48 hr (MIA Paca-2) and 6 hr (LU65A) respectively. Cells were then washed with cold PBS, aspirated and cold RIPA buffer containing a protease/phosphatase inhibitor cocktail was added to lyse cells. After centrifugation, the total protein concentrations of cell lysates were determined using the BCA protein assay. Samples were normalized for equivalent protein concentrations, 5×SDS-PAGE loading buffer added and denatured at 100° C. for 10 min. 20 μl of each sample/well was loaded on a SDS-PAGE gel and electrophoresed for 20 min at 80 V, then 120 V for 1.5 hr. Gels were then electroblotted to nitrocellulose membranes using a wet-transfer method at 250 mA for 2.5 hr. Membranes were incubated with blocking buffer for 1 hr and washed 3 times with TBST for 5 min. Membranes were then incubated with anti-KRAS (Sigma-Aldrich, #SAB1404011) and anti-β-Actin monoclonal antibodies (Cell Signaling Technology, #3700) diluted in blocking buffer at 4° C. overnight per the manufacturer's recommendations. After washing 3 times, blots were incubated with appropriately labeled secondary antibodies for 1 hr at room temperature and washed again. Fluorescence imaging and quantitation was performed using a LI-COR Odyssey. Results was analyzed using GraphPad Prism 7 software. Compound degradation of was determined by the following equation and DC50 values (the concentration at which 50% of the maximal degradation of KRAS occurs) calculated using GraphPad Prism 7 software:
% Inhibition=100−(D−B)/(S−B)*100%. • S: Fluorescence intensity of cells with antibody • D: Fluorescence intensity of compound-treated cells with antibody • B: Fluorescence intensity of cells without antibody

[2] = target: T1, KRAS(G12C); experiment: KRAS(G12C)/SOS1 homogeneous time-resolved fluorescence (HTRF) assay; design: purchased Cisbio 63ADK000CB16PEG; conditions: absence of GTP, 4° C. for 3 hr, read-out: KRAS (G12C) binding
Outline: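 HTRF kit measuring compound-induced block of KRAS(G12C)-SOS1 interaction without GTP. Compounds tested as 3-fold serial dilutions down to 1.02 nM, incubated with reaction components 3 h at 4 °C in sealed plates before fluorescence read.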

[3] = system: MIA PaCa-2 human pancreatic carcinoma; experiment: MIA PaCa-2 CCK-8 proliferation assay; assay type: cell-based; conditions: MIA PaCa-2 cells
Outline: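 CCK-8 absorbance readout; % inhibition = 100 − (compound − blank)/(DMSO − blank) × 100, blank = medium + DMSO, no cells. Dose range 20 μM down to 1.02 nM, 3-fold steps. KRAS(G12C) copy number: MIA PaCa-2 2; NCI-H358 1; NCI-H23 1.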

T1 sequence (P01116 1-188 isoform P01116-2 G12C): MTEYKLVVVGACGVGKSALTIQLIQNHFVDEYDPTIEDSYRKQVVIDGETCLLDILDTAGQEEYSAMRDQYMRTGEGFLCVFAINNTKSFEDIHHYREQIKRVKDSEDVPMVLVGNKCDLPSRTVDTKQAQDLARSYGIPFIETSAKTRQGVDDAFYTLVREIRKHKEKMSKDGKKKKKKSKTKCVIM

Structure (SMILES)	DC50 [1] [nM]	IC50 [2] [nM]	EC50 ([3]; Homo sapiens, MIA PaCa-2, 72 h) [nM]	EC50 ([3]; 72 hr) [nM]
C=CC(=O)N1CCN(c2nc(OC[C@@H]3C[C@H](N4CCN(Cc5ccc(-n6c(O)nnc6-c6cc(C(C)C)c(O)cc6O)cc5)CC4)CN3C)nc3c2CCN(c2cccc4cccc(C)c24)C3)C[C@@H]1CC#N [Compound 279, 2-[(2S)-4-(2-{[(2S,4S)-4-[4-({4-[3-(2,4-dihydroxy-5-isopropylphenyl)-5-hydroxy-1,2,4-triazol-4-yl]phenyl}methyl)piperazin-1-yl]-1-methylpyrrolidin-2-yl]methox-y}-7-(8-methylnaphthalen-1-yl)-5H,6H,8H-pyrido[3,4-d]pyrimidin-4-yl)-1-(prop-2-enoyl)piperazin-2-yl]acetonitrile]	100 to 1000	< 100	100 to 1000	–
C=CC(=O)N1CCN(c2nc(OCCN3CCN(C(=O)C4CCN(Cc5ccc(-n6c(C(=O)NCC(F)(F)F)nnc6-c6cc(C(C)C)c(O)cc6O)cc5)CC4)C[C@H]3CN(C)C)nc3c2CCN(c2cccc4cccc(Cl)c24)C3)C[C@@H]1CC#N [Compound 266, 4-(4-((4-((R)-4-(2-((4-((S)-4-acryloyl-3-(cyanomethyl)piperazin-1-yl)-7-(8-chloronaphthalen-1-yl)-5,6,7,8-tetrahydropyrido[3,4-d]pyrimidin-2-yl)oxy)ethyl)-3-((dimethylamino)methyl)piperazine-1-carbonyl)piperidin-1-yl)methyl)phenyl)-5-(2,4-dihydroxy-5-isopropylphenyl)-N-(2,2,2-trifluoroethyl)-4H-1,2,4-triazole-3-carboxamide]	100 to 1000	100 to 1000	> 1000	–
C=CC(=O)N1CCN(c2nc(OC[C@@H]3C[C@H](N4CCN(C(=O)C5CCN(Cc6ccc(-n7c(C(=O)NCC(F)(F)F)nnc7-c7cc(C(C)C)c(O)cc7O)cc6)CC5)CC4)CN3C)nc3c2CCN(c2cccc4cccc(Cl)c24)C3)C[C@@H]1CC#N [Compound 261, 4-{4-[(4-{4-[(3S,5S)-5-({[7-(8-chloronaphthalen-1-yl)-4-[(3S)-3-(cyanomethyl)-4-(prop-2-enoyl)piperazin-1-yl]-5H,6H,8H-pyrido[3,4-d]pyrimidin-2-yl]oxy}methyl)-1-methylpyrrolidin-3-yl]piperazine-1-carbonyl}piperidin-1-yl)methyl]phenyl}-5-(2,4-dihydroxy-5-isopropylphenyl)-N-(2,2,2-trifluoroethyl)-1,2,4-triazole-3-carboxamide]	100 to 1000	< 100	< 100	–
C=CC(=O)N1CCN(c2nc(OC[C@@H]3C[C@H](N4CCN(C(=O)C5CCN(Cc6ccc(-n7c(O)nnc7-c7cc(C(C)C)c(O)cc7O)cc6)CC5)CC4)CN3C)nc3c2CCN(c2cccc4cccc(Cl)c24)C3)C[C@@H]1CC#N [Compound 264, 2-[(2S)-4-[7-(8-chloronaphthalen-1-yl)-2-{[(2S,4S)-4-{4-[1-({4-[3-(2,4-dihydroxy-5-isopropylphenyl)-5-hydroxy-1,2,4-triazol-4-yl]phenyl}methyl)piperidine-4-carbonyl]piperazin-1-yl}-1-methylpyrrolidin-2-yl]methoxy}-5H,6H,8H-pyrido[3,4-d]pyrimidin-4-yl]-1-(prop-2-enoyl)piperazin-2-yl]acetonitrile]	100 to 1000	< 100	100 to 1000	–
C=CC(=O)N1CCN(c2nc(OC[C@@H]3CC[C@H](CN4CCN(Cc5ccc(-n6c(O)nnc6-c6cc(C(C)C)c(O)cc6O)cc5)CC4)N3C)nc3c2CCN(c2cccc4ccccc24)C3)C[C@@H]1CC#N [Compound 272, 2-[(2S)-4-(2-{[(2S,5R)-5-{[4-({4-[3-(2,4-dihydroxy-5-isopropylphenyl)-5-hydroxy-1,2,4-triazol-4-yl]phenyl}methyl)piperazin-1-yl]methyl}-1-methylpyrrolidin-2-yl]methoxy}-7-(naphthalen-1-yl)-5H,6H,8H-pyrido[3,4-d]pyrimidin-4-yl)-1-(prop-2-enoyl)piperazin-2-yl]acetonitrile]	< 100	–	< 100	–
C=CC(=O)N1CCN(c2nc(OCCN3CCN(C(=O)C4CCN(Cc5ccc(-n6c(C(N)=O)nnc6-c6cc(C(C)C)c(O)cc6O)cc5)CC4)C[C@@H]3CN(C)C)nc3c2CCN(c2cccc4cccc(Cl)c24)C3)C[C@@H]1CC#N [Compound 260, 4-(4-((4-((S)-4-(2-((4-((S)-4-acryloyl-3-(cyanomethyl)piperazin-1-yl)-7-(8-chloronaphthalen-1-yl)-5,6,7,8-tetrahydropyrido[3,4-d]pyrimidin-2-yl)oxy)ethyl)-3-((dimethylamino)methyl)piperazine-1-carbonyl)piperidin-1-yl)methyl)phenyl)-5-(2,4-dihydroxy-5-isopropylphenyl)-4H-1,2,4-triazole-3-carboxamide]	> 1000	–	< 100	–
C=CC(=O)N1CCN(c2nc(OCCN3CCC(C(=O)N4CCN(Cc5ccc(-n6c(C(=O)NCC(F)(F)F)nnc6-c6cc(C)c(O)cc6O)cc5)CC4)CC3)nc3c2CCN(c2cccc4cccc(Cl)c24)C3)C[C@@H]1CC#N [Compound 254, (S)-4-(4-((4-(1-(2-((4-(4-acryloyl-3-(cyanomethyl)piperazin-1-yl)-7-(8-chloronaphthalen-1-yl)-5,6,7,8-tetrahydropyrido[3,4-d]pyrimidin-2-yl)oxy)ethyl)piperidine-4-carbonyl)piperazin-1-yl)methyl)phenyl)-5-(2,4-dihydroxy-5-methylphenyl)-N-(2,2,2-trifluoroethyl)-4H-1,2,4-triazole-3-carboxamide]	> 1000	–	–	> 1000
C=CC(=O)N1CCN(c2nc(OCCN3CCC(C(=O)N4CCN(Cc5ccc(-n6c(C(=O)NCC(F)(F)F)nnc6-c6cc(C)c(O)cc6O)cc5)CC4)CC3)nc3c2CCN(c2cccc4cccc(Cl)c24)C3)C[C@@H]1CC#N [Compound 253, (S)-4-(4-((4-(1-(2-((4-(4-acryloyl-3-(cyanomethyl)piperazin-1-yl)-7-(8-chloronaphthalen-1-yl)-5,6,7,8-tetrahydropyrido[3,4-d]pyrimidin-2-yl)oxy)ethyl)piperidine-4-carbonyl)piperazin-1-yl)methyl)phenyl)-5-(2,4-dihydroxy-5-methylphenyl)-N-(2,2,2-trifluoroethyl)-4H-1,2,4-triazole-3-carboxamide]	> 1000	–	–	100 to 1000
C=CC(=O)N1CCN(c2nc(OC[C@@H]3C[C@H](N4CCN(Cc5ccc(-n6c(C(=O)NCC)nnc6-c6cc(C(C)C)c(O)cc6O)cc5)CC4)CN3C)nc3c2CCN(c2cccc4ccccc24)C3)C[C@@H]1CC#N [Compound 271, 4-[4-({4-[(3S,5S)-5-[({4-[(3S)-3-(cyanomethyl)-4-(prop-2-enoyl)piperazin-1-yl]-7-(naphthalen-1-yl)-5H,6H,8H-pyrido[3,4-d]pyrimidin-2-yl}oxy)methyl]-1-methylpyrrolidin-3-yl]piperazin-1-yl}methyl)phenyl]-5-(2,4-dihydroxy-5-isopropylphenyl)-N-ethyl-1,2,4-triazole-3-carboxamide]	100 to 1000	–	100 to 1000	–
